Reference: US20260022143A1, “Cyclic Peptide Inhibitors of IL-23” (JANSSEN PHARMACEUTICA NV, priority 2022, published 2026)
Positions of bridges follow the written chain, without caps; N, C: chain ends. Non-standard residues stand in square brackets, D forms with d. Residues, ends and D or L forms follow the SMILES beside them. *: point of attachment. Me3N+(CH2)2O(CH2)2O(CH2)2CO = C[N+](C)(C)CCOCCOCCC(=O)*; Trp(7-Me) = Cc1cccc2c(C[C@H](N)C(=O)O)c[nH]c12; X83 = CN(CCC[N+](C)(C)CCCC[N+](C)(C)C)CC*; X9 = COCCOCCOCC[N+](C)(C)CCc1cn(CC*)nn1; CH2CH2OCH2CH2NMe3+ = C[N+](C)(C)CCOCC*; 2Nal = N[C@@H](Cc1ccc2ccccc2c1)C(=O)O; AEF = NCCOc1ccc(C[C@H](N)C(=O)O)cc1; X26 = C[N+](C)(C)CCCCc1cn(CC*)nn1; X32 = C(CCC*)CC[N+]12CCN(CC1)CC2; 3Pal = N[C@@H](Cc1cccnc1)C(=O)O; Lys(Me) = CNCCCC[C@H](N)C(=O)O; Pen = CC(C)(S)[C@H](N)C(=O)O; Thp = NC1(C(=O)O)CCOCC1; X3 = C[N+](C)(C)CCCCC*; Sar = CNCC(=O)O

Assay: Exposed Polar Surface Area (EPSA)
Type: physicochemical
Settings: SFC on Chirex 3014 column; sample 1 mM DMSO stock; read-out: EPSA
How it was run: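 Polarity measured by SFC on a Chirex 3014 column (35 °C, 4 mL/min) with methanol/ammonium formate in CO2 as gradient eluent. Retention times were normalised to EPSA (Å^2) against eight reference compounds.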

Row | SMILES | EPSA [A^2]
1 | CC(=O)NCCCC[C@@H]1NC(=O)[C@H](Cc2c[nH]c3c(C)cccc23)NC(=O)[C@H]([C@@H](C)O)NC(=O)[C@H](CC(=O)N(C)C)NC(=O)[C@@H](NC(C)=O)C(C)(C)SSC(C)(C)[C@@H](C(=O)N[C@@H](Cc2ccc(OCCN)cc2)C(=O)N[C@@H](Cc2ccc3ccccc3c2)C(=O)NC2(C(=O)N[C@@H](CCCCNC(C)=O)C(=O)N[C@@H](CC(N)=O)C(=O)N[C@@H](Cc3cccnc3)C(=O)N(C)CC(N)=O)CCOCC2)NC1=O [compound 279, MeCO-Pen(3)-N(N(Me)2)-T-7MeW-K(Ac)-Pen(3)-AEF-2Nal-THP-K(Ac)-N-3Pya-Sar-CONH2] (Ac-[Pen]D(NMe2)T[Trp(7-Me)]K(Ac)[Pen][AEF][2Nal][Thp]K(Ac)N[3Pal][Sar]-NH2; disulfide 1-6) | 163
2 | CC(=O)N[C@@H]1C(=O)N[C@@H](CC(N)=O)C(=O)N[C@@H]([C@@H](C)O)C(=O)N[C@@H](Cc2c[nH]c3c(C)cccc23)C(=O)N[C@@H](CCCCN(C)C(C)=O)C(=O)N[C@H](C(=O)N[C@@H](Cc2ccc(OCCN)cc2)C(=O)N[C@@H](Cc2ccc3ccccc3c2)C(=O)NC2(C(=O)N[C@@H](CCCCN(C)C(C)=O)C(=O)N[C@@H](CC(N)=O)C(=O)N[C@@H](Cc3cccnc3)C(=O)N(C)CC(N)=O)CCOCC2)C(C)(C)SSC1(C)C [compound 280] (Ac-[Pen]NT[Trp(7-Me)][Lys(Me)](Ac)[Pen][AEF][2Nal][Thp][Lys(Me)](Ac)N[3Pal][Sar]-NH2; disulfide 1-6 (inferred)) | 167
3 | CC(=O)NCCCC[C@@H]1NC(=O)[C@H](Cc2c[nH]c3c(C)cccc23)NC(=O)[C@H]([C@@H](C)O)NC(=O)[C@H](CC(N)=O)NC(=O)[C@@H](NC(C)=O)C(C)(C)SSC(C)(C)[C@@H](C(=O)N[C@@H](Cc2ccc(OCCN)cc2)C(=O)N[C@@H](Cc2ccc3ccccc3c2)C(=O)NC2(C(=O)N[C@@H](CCCCNC(C)=O)C(=O)N[C@@H](CC(N)=O)C(=O)N[C@@H](Cc3cccnc3)C(=O)N(C)CC(=O)N(C)C)CCOCC2)NC1=O [compound 282] (Ac-[Pen]NT[Trp(7-Me)]K(Ac)[Pen][AEF][2Nal][Thp]K(Ac)N[3Pal][Sar]-NMe2; disulfide 1-6) | 163
4 | COCCOCCOCC[N+](C)(C)CCc1cn(CCOc2ccc(C[C@H](NC(=O)[C@H]3NC(=O)[C@H](CCCCN(C)C(C)=O)NC(=O)[C@H](Cc4c[nH]c5c(C)cccc45)NC(=O)[C@H]([C@@H](C)O)NC(=O)[C@H](CC(=O)N(C)C)NC(=O)[C@@H](NC(=O)CCOCCOCC[N+](C)(C)C)C(C)(C)SSC3(C)C)C(=O)N[C@@H](Cc3ccc4ccccc4c3)C(=O)NC3(C(=O)N[C@@H](CCCCN(C)C(C)=O)C(=O)N[C@@H](CC(N)=O)C(=O)N[C@@H](Cc4cccnc4)C(=O)N(C)CC(=O)N(C)C)CCOCC3)cc2)nn1 [compound 283, cPEG3aCO-Pen(3)-N(N(Me)2)-T-7MeW-K(NMeAc)-Pen(3)-Y(OTzlChmPEG3)-2Nal-THP-K(NMeAc)-N-3Pya-Sar-CON(Me)2] ({Me3N+(CH2)2O(CH2)2O(CH2)2CO}-[Pen]D(NMe2)T[Trp(7-Me)][Lys(Me)](Ac)[Pen]Y(X9)[2Nal][Thp][Lys(Me)](Ac)N[3Pal][Sar]-NMe2; disulfide 1-6) | 146
5 | CC(=O)N(C)CCCC[C@@H]1NC(=O)[C@H](Cc2c[nH]c3c(C)cccc23)NC(=O)[C@H]([C@@H](C)O)NC(=O)[C@H](CC(=O)N(C)C)NC(=O)[C@@H](NC(=O)CCOCCOCC[N+](C)(C)C)C(C)(C)SSC(C)(C)[C@@H](C(=O)N[C@@H](Cc2ccc(OCCCCCC[N+]34CCN(CC3)CC4)cc2)C(=O)N[C@@H](Cc2ccc3ccccc3c2)C(=O)NC2(C(=O)N[C@@H](CCCCN(C)C(C)=O)C(=O)N[C@@H](CC(N)=O)C(=O)N[C@@H](Cc3cccnc3)C(=O)N(C)CC(=O)N(C)C)CCOCC2)NC1=O [compound 292, cPEG3aCO-Pen(3)-N(N(Me)2)-T-7MeW-K(NMeAc)-Pen(3)-Diazabiclyclooctane6F-2Nal-THP-K(NMeAc)-N-3Pya-Sar-CON(Me)2] ({Me3N+(CH2)2O(CH2)2O(CH2)2CO}-[Pen]D(NMe2)T[Trp(7-Me)][Lys(Me)](Ac)[Pen]Y(X32)[2Nal][Thp][Lys(Me)](Ac)N[3Pal][Sar]-NMe2; disulfide 1-6) | 152

Next, values leading:

Row | EPSA [A^2] | SMILES
6 | 149 | CC(=O)N[C@@H]1C(=O)N[C@@H](CC(=O)N(C)C)C(=O)N[C@@H]([C@@H](C)O)C(=O)N[C@@H](Cc2c[nH]c3c(C)cccc23)C(=O)N[C@@H](CCCCN(C)C(C)=O)C(=O)N[C@H](C(=O)N[C@@H](Cc2ccc(OCCCCC[N+](C)(C)C)cc2)C(=O)N[C@@H](Cc2ccc3ccccc3c2)C(=O)NC2(C(=O)N[C@@H](COCCOCC[N+](C)(C)C)C(=O)N[C@@H](CC(N)=O)C(=O)N[C@@H](Cc3cccnc3)C(=O)N(C)CC(=O)N(C)C)CCOCC2)C(C)(C)SSC1(C)C [compound 275, MeCO-Pen(3)-N(N(Me)2)-T-7MeW-K(NMeAc)-Pen(3)-TMAPF-2Nal-THP-APEG2Ser-N-3Pya-Sar-CON(Me)2] (Ac-[Pen]D(NMe2)T[Trp(7-Me)][Lys(Me)](Ac)[Pen]Y(X3)[2Nal][Thp]S(CH2CH2OCH2CH2NMe3+)N[3Pal][Sar]-NMe2; disulfide 1-6)
7 | 154 | CC(=O)N(C)CCCC[C@@H]1NC(=O)[C@H](Cc2c[nH]c3c(C)cccc23)NC(=O)[C@H]([C@@H](C)O)NC(=O)[C@H](CC(=O)N(C)C)NC(=O)[C@@H](NC(=O)CCOCCOCC[N+](C)(C)C)C(C)(C)SSC(C)(C)[C@@H](C(=O)N[C@@H](Cc2ccc(OCCN(C)CCC[N+](C)(C)CCCC[N+](C)(C)C)cc2)C(=O)N[C@@H](Cc2ccc3ccccc3c2)C(=O)NC2(C(=O)N[C@@H](CCCCN(C)C(C)=O)C(=O)N[C@@H](CC(N)=O)C(=O)N[C@@H](Cc3cccnc3)C(=O)N(C)CC(=O)N(C)C)CCOCC2)NC1=O [compound 277, cPEG3aCO-Pen(3)-N(N(Me)2)-T-7MeW-K(NMeAc)-Pen(3)-AEF(SPD)-2Nal-THP-K(NMeAc)-N-3Pya-Sar-CON(Me)2] ({Me3N+(CH2)2O(CH2)2O(CH2)2CO}-[Pen]D(NMe2)T[Trp(7-Me)][Lys(Me)](Ac)[Pen]Y(X83)[2Nal][Thp][Lys(Me)](Ac)N[3Pal][Sar]-NMe2; disulfide 1-6)
8 | 151 | CC(=O)N(C)CCCC[C@@H]1NC(=O)[C@H](Cc2c[nH]c3c(C)cccc23)NC(=O)[C@H]([C@@H](C)O)NC(=O)[C@H](CC(=O)N(C)C)NC(=O)[C@@H](NC(=O)CCOCCOCC[N+](C)(C)C)C(C)(C)SSC(C)(C)[C@@H](C(=O)N[C@@H](Cc2ccc(OCCn3cc(CCCC[N+](C)(C)C)nn3)cc2)C(=O)N[C@@H](Cc2ccc3ccccc3c2)C(=O)NC2(C(=O)N[C@@H](CCCCN(C)C(C)=O)C(=O)N[C@@H](CC(N)=O)C(=O)N[C@@H](Cc3cccnc3)C(=O)N(C)CC(=O)N(C)C)CCOCC2)NC1=O [compound 284, cPEG3aCO-Pen(3)-N(N(Me)2)-T-7MeW-K(NMeAc)-Pen(3)-Y(OTzlTMA4)-2Nal-THP-K(NMeAc)-N-3Pya-Sar-CON(Me)2] ({Me3N+(CH2)2O(CH2)2O(CH2)2CO}-[Pen]D(NMe2)T[Trp(7-Me)][Lys(Me)](Ac)[Pen]Y(X26)[2Nal][Thp][Lys(Me)](Ac)N[3Pal][Sar]-NMe2; disulfide 1-6)
